From the NIST ThermoML archive (doi:10.1021/je900938b)

Experiment: xn = mol fraction of the nth substance listed
Settings: 101 kPa, Liquid; for mass density: Pycnometric method

OCC(O)CO [glycerol] + OCCO
Settings	mass density [kg/m3]	viscosity [mPa·s]
298.15 K, x1 = 0.1001	1129.2	25.1
298.15 K, x1 = 0.2002	1147.2	37.4
298.15 K, x1 = 0.3001	1164	55
298.15 K, x1 = 0.4002	1180.2	82.8
298.15 K, x1 = 0.4991	1195	121.4
298.15 K, x1 = 0.6011	1209.4	184.2
298.15 K, x1 = 0.7015	1222.6	272.9
298.15 K, x1 = 0.7981	1234.5	405.9
298.15 K, x1 = 0.8961	1246.1	611.8
298.15 K, x1 = 1	1257.8	943.8
303.15 K, x1 = 0.1001	1126.3	20.7
303.15 K, x1 = 0.2002	1144.4	30.3
303.15 K, x1 = 0.3001	1161.2	43.1
303.15 K, x1 = 0.4002	1177.3	64.2
303.15 K, x1 = 0.4991	1192.2	91.4
303.15 K, x1 = 0.6011	1206.7	134
303.15 K, x1 = 0.7015	1219.7	195
303.15 K, x1 = 0.7981	1231.5	285.9
303.15 K, x1 = 0.8961	1243.2	422.7
303.15 K, x1 = 1	1254.7	628.9
308.15 K, x1 = 0.1001	1122.9	17
308.15 K, x1 = 0.2002	1141.2	24.1
308.15 K, x1 = 0.3001	1158.2	33.9
308.15 K, x1 = 0.4002	1174.5	48.5
308.15 K, x1 = 0.4991	1189.5	69.4
308.15 K, x1 = 0.6011	1204	100.2
308.15 K, x1 = 0.7015	1217	142.4
308.15 K, x1 = 0.7981	1229.1	206.2
308.15 K, x1 = 0.8961	1240.7	299.9
308.15 K, x1 = 1	1252.2	431.9
313.15 K, x1 = 0.1001	1119.9	14
313.15 K, x1 = 0.2002	1138.2	19.6
313.15 K, x1 = 0.3001	1155.2	27
313.15 K, x1 = 0.4002	1171.6	38.2
313.15 K, x1 = 0.4991	1186.7	52.6
313.15 K, x1 = 0.6011	1201.3	75.2
313.15 K, x1 = 0.7015	1214.3	107
313.15 K, x1 = 0.7981	1226.5	145.2
313.15 K, x1 = 0.8961	1238	204.6
313.15 K, x1 = 1	1249.4	295.9
318.15 K, x1 = 0.1001	1116.3	11.7
318.15 K, x1 = 0.2002	1134.7	16.1
318.15 K, x1 = 0.3001	1151.8	21.7
318.15 K, x1 = 0.4002	1168.2	30.6
318.15 K, x1 = 0.4991	1183.3	41.1
318.15 K, x1 = 0.6011	1197.8	57.3
318.15 K, x1 = 0.7015	1210.9	81
318.15 K, x1 = 0.7981	1223.1	108.2
318.15 K, x1 = 0.8961	1234.7	148.4
318.15 K, x1 = 1	1245.8	185.8
323.15 K, x1 = 0.1001	1113.4	9.65
323.15 K, x1 = 0.2002	1131.8	13.1
323.15 K, x1 = 0.3001	1148.7	17.9
323.15 K, x1 = 0.4002	1165.2	24.4
323.15 K, x1 = 0.4991	1180.1	33.6
323.15 K, x1 = 0.6011	1194.6	45.3
323.15 K, x1 = 0.7015	1207.9	62
323.15 K, x1 = 0.7981	1219.9	82.4
323.15 K, x1 = 0.8961	1231.2	111
323.15 K, x1 = 1	1242.3	151.2
328.15 K, x1 = 0.1001	1109.4	8.31
328.15 K, x1 = 0.2002	1128	11
328.15 K, x1 = 0.3001	1145.1	14.6
328.15 K, x1 = 0.4002	1161.7	20.1
328.15 K, x1 = 0.4991	1176.7	26.5
328.15 K, x1 = 0.6011	1191.4	36
328.15 K, x1 = 0.7015	1204.7	48.1
328.15 K, x1 = 0.7981	1216.9	64.4
328.15 K, x1 = 0.8961	1228.3	84.6
328.15 K, x1 = 1	1239.3	108.4
333.15 K, x1 = 0.1001	1106	7.06
333.15 K, x1 = 0.2002	1124.6	9.17
333.15 K, x1 = 0.3001	1141.8	12.4
333.15 K, x1 = 0.4002	1158.4	16.4
333.15 K, x1 = 0.4991	1173.5	21.5
333.15 K, x1 = 0.6011	1188.2	28.4
333.15 K, x1 = 0.7015	1201.5	37.6
333.15 K, x1 = 0.7981	1213.8	49.4
333.15 K, x1 = 0.8961	1225.3	66.2
333.15 K, x1 = 1	1236.1	84.8
338.15 K, x1 = 0.1001	1102.8	6.1
338.15 K, x1 = 0.2002	1121.4	7.81
338.15 K, x1 = 0.3001	1138.6	10.5
338.15 K, x1 = 0.4002	1155.1	13.8
338.15 K, x1 = 0.4991	1170.2	18.1
338.15 K, x1 = 0.6011	1185	23.5
338.15 K, x1 = 0.7015	1198.3	30.7
338.15 K, x1 = 0.7981	1210.6	39.5
338.15 K, x1 = 0.8961	1222.2	50.9
338.15 K, x1 = 1	1232.8	62.2
